Assay results as given in paper PMC7614683, “A small molecule PI3Kα activator for cardioprotection and neuroregeneration” (Nature, 2023).
Where two headings read alike, the source gives them in different places.

Experiments:
Experiment in all cases: SelectScreen Z-LYTE kinase activity assay (SI Table 6)
Assay type in all cases: biochemical
[1] = molecular target: T1, protein kinases of the Z-LYTE panel (Homo sapiens, UniProt Q8IW41)
T1 sequence (Q8IW41 1-473): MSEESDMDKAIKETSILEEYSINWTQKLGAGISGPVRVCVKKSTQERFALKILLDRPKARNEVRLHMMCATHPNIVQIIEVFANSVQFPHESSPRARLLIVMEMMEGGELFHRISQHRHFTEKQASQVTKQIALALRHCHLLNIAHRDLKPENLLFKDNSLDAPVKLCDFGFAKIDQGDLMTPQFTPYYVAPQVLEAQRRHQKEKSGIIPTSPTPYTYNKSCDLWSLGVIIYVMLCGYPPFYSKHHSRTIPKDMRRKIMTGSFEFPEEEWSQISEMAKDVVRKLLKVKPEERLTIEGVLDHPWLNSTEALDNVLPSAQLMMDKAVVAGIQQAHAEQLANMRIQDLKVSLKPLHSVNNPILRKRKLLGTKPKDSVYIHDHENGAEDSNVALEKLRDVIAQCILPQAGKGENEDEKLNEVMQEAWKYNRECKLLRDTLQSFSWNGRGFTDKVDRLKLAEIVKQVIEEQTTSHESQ
Method in brief: (§1)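 Compound 1938 counterscreened at 1 μM against 133 protein and 7 lipid kinases in the SelectScreen panel, using Adapta, LanthaScreen binding and Z-LYTE formats as applicable.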

[2] = molecular target: protein kinases of the Z-LYTE panel (Homo sapiens, UniProt P12931)
Method in brief: as §1

[3] = molecular target: protein kinases of the Z-LYTE panel (Homo sapiens, UniProt P00519)
Method in brief: as §1

[4] = molecular target: protein kinases of the Z-LYTE panel (Homo sapiens, UniProt P22455)
Method in brief: as §1

[5] = molecular target: protein kinases of the Z-LYTE panel (Homo sapiens, UniProt P04626)
Method in brief: as §1

[6] = molecular target: protein kinases of the Z-LYTE panel (Homo sapiens, UniProt P09619)
Method in brief: as §1

[7] = molecular target: protein kinases of the Z-LYTE panel (Homo sapiens, UniProt Q9P286)
Chain of protein kinases of the Z-LYTE panel (Homo sapiens, UniProt Q9P286) (Q9P286 whole entry): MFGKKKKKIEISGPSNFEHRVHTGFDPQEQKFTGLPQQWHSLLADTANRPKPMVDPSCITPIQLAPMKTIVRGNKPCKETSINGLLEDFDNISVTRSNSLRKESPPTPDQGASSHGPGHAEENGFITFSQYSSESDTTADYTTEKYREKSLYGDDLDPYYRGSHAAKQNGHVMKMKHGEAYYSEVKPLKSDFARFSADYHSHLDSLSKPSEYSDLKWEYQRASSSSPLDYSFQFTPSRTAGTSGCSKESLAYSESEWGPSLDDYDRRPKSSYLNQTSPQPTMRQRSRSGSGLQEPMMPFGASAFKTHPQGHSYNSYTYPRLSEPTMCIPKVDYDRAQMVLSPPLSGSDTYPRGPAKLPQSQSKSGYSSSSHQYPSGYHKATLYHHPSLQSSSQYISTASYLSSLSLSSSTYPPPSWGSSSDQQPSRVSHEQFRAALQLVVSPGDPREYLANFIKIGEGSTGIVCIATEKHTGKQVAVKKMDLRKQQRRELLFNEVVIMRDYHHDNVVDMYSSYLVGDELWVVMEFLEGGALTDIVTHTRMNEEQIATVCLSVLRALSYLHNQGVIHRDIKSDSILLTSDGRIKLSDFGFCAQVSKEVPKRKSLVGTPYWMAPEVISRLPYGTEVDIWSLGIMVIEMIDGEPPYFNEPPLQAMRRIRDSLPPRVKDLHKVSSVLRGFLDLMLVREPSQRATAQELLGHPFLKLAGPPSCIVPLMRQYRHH
Method in brief: as §1

[8] = molecular target: protein kinases of the Z-LYTE panel (Homo sapiens, UniProt Q9P1W9)
Chain of protein kinases of the Z-LYTE panel (Homo sapiens, UniProt Q9P1W9) (Q9P1W9 whole entry): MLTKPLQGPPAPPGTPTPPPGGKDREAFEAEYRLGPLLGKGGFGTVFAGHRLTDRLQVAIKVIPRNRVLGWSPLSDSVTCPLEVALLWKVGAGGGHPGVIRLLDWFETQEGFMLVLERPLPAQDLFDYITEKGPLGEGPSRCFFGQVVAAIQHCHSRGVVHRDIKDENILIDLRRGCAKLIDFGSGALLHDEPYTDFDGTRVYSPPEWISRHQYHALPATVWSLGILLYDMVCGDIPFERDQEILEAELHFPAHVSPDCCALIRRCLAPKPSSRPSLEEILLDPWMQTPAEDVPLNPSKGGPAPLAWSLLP
Method in brief: as §1

[9] = molecular target: protein kinases of the Z-LYTE panel (Homo sapiens, UniProt Q16620)
Method in brief: as §1

[10] = molecular target: protein kinases of the Z-LYTE panel (Homo sapiens, UniProt P00533, L858R/T790M)
Chain of protein kinases of the Z-LYTE panel (Homo sapiens, UniProt P00533, L858R/T790M) (P00533 25-1210 T790M/L858R): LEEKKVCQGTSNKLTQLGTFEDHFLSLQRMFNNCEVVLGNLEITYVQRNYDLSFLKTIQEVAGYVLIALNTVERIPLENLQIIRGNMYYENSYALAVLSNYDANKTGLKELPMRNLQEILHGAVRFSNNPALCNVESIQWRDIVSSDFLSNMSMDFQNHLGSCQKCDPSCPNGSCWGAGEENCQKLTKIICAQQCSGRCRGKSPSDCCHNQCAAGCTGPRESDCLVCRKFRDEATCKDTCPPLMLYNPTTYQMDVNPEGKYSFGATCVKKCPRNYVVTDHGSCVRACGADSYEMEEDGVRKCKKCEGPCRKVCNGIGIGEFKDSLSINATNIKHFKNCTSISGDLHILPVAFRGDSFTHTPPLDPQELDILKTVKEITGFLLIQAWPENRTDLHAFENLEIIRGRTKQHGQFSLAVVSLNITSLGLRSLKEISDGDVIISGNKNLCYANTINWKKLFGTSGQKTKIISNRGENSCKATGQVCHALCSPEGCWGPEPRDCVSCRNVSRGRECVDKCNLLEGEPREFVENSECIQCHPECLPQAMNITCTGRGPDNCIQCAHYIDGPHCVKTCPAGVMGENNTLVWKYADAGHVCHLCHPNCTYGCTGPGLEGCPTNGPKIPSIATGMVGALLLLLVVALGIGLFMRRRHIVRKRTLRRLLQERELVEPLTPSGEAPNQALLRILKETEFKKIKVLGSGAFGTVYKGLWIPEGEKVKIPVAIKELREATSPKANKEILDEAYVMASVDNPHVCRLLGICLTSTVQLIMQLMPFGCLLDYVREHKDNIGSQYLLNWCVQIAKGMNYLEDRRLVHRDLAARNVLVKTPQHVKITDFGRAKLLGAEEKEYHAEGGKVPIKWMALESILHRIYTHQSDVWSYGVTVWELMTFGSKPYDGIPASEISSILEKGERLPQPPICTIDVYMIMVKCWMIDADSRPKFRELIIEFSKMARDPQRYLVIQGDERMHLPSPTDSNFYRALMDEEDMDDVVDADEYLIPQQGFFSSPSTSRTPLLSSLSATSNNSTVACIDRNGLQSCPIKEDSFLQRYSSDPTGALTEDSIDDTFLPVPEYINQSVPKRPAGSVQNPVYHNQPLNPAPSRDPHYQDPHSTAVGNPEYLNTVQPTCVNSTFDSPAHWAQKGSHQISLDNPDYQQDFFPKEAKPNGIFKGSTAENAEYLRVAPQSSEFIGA
Method in brief: as §1

[11] = molecular target: protein kinases of the Z-LYTE panel (Homo sapiens, UniProt P78527)
Method in brief: as §1

[12] = molecular target: protein kinases of the Z-LYTE panel (Homo sapiens, UniProt Q8N4C8)
Chain of protein kinases of the Z-LYTE panel (Homo sapiens, UniProt Q8N4C8) (Q8N4C8 whole entry): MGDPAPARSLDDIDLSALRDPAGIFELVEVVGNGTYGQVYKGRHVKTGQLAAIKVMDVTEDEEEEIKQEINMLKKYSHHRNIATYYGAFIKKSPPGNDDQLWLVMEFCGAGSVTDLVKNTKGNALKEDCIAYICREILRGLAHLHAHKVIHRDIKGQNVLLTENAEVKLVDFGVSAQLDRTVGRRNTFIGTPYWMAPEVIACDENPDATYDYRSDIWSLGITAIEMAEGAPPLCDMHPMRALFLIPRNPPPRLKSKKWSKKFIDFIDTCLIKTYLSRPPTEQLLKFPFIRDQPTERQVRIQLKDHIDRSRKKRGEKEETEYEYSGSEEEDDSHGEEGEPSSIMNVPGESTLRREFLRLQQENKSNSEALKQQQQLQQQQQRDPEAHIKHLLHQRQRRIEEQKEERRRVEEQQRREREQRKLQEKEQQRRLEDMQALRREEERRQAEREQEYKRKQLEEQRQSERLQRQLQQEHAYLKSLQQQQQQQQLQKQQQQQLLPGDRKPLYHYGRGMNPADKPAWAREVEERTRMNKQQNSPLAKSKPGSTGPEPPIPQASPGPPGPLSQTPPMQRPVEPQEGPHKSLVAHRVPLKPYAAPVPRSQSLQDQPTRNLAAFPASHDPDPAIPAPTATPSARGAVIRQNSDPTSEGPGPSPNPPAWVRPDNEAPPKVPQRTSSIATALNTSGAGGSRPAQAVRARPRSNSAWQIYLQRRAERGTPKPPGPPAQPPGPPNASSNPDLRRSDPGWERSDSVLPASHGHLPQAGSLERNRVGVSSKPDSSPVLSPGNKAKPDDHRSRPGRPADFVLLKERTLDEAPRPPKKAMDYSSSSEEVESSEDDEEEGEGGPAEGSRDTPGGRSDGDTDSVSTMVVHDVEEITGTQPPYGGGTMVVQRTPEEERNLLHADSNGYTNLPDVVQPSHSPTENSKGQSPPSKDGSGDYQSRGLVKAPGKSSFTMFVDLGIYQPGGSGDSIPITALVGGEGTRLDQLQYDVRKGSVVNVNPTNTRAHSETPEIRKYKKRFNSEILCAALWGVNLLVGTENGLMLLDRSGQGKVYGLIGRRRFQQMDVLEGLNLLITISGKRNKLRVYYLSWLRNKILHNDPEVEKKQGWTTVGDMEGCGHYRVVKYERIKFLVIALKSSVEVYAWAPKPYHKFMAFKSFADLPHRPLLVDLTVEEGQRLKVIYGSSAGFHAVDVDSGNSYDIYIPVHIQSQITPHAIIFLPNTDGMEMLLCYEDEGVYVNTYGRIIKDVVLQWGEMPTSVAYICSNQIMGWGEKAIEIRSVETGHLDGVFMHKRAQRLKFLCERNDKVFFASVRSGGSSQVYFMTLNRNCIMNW
Method in brief: as §1

[13] = molecular target: protein kinases of the Z-LYTE panel (Homo sapiens, UniProt Q16539)
Chain of protein kinases of the Z-LYTE panel (Homo sapiens, UniProt Q16539) (Q16539 whole entry): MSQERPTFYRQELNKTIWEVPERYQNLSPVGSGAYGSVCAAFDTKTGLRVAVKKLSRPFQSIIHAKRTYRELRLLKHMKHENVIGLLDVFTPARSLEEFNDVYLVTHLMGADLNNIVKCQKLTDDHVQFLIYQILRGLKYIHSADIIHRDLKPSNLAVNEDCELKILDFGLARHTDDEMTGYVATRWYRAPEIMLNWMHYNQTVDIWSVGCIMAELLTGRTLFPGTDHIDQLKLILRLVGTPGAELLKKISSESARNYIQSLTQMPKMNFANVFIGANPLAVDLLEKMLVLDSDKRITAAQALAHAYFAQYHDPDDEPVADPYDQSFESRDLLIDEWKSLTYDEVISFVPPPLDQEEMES
Method in brief: as §1

[14] = molecular target: protein kinases of the Z-LYTE panel (Homo sapiens, UniProt Q96GD4)
Chain of protein kinases of the Z-LYTE panel (Homo sapiens, UniProt Q96GD4) (Q96GD4 whole entry): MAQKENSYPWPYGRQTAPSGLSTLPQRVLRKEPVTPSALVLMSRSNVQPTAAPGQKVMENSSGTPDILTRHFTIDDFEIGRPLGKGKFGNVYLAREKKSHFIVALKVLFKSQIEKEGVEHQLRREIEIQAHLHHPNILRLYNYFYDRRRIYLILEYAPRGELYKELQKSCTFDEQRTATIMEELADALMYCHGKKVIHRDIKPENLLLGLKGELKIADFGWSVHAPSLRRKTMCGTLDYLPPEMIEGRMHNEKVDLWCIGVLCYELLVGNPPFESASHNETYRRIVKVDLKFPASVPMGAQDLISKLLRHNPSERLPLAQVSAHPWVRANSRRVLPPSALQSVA
Method in brief: as §1

[15] = molecular target: protein kinases of the Z-LYTE panel (Homo sapiens, UniProt Q96SB4)
Chain of protein kinases of the Z-LYTE panel (Homo sapiens, UniProt Q96SB4) (Q96SB4 whole entry): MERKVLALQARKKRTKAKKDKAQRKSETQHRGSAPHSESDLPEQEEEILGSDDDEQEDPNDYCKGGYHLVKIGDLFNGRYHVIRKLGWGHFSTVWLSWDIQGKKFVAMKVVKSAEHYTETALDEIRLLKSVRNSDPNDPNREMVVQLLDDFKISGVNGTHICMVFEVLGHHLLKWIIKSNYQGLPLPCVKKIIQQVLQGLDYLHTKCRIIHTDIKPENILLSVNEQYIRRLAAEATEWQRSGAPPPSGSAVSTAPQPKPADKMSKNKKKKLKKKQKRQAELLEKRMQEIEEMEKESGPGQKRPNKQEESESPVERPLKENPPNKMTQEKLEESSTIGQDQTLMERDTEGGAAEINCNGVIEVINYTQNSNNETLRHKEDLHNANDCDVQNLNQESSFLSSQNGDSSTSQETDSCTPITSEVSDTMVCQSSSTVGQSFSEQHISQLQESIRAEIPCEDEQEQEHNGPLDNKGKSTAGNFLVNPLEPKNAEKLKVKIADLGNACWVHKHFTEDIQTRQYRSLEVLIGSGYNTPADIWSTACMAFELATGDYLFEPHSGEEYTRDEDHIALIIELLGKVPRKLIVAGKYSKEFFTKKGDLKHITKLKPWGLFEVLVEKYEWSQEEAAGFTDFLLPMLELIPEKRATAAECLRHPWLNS
Method in brief: as §1

**Q.** With `CCN1CCN(c2ccc(Nc3cc(Nc4cccc5c4N(C(C)=O)CC5)ccn3)cc2)CC1` [Compound 1938] as the compound, how does the inhibition at 1 µM ([1]; read-out: % Inhibition Point 1) read?
**A.** Its inhibition at 1 µM is 2.18%.

**Q.** What about the inhibition at 1 µM ([1]; read-out: % Inhibition Point 2) of the same compound?
**A.** Its inhibition at 1 µM is 2.77%.

**Q.** And the inhibition at 1 µM ([1]; read-out: % Inhibition mean)?
**A.** Its inhibition at 1 µM is 2.48%.

**Q.** And the inhibition at 1 µM ([2]; read-out: % Inhibition Point 1)?
**A.** The inhibition at 1 µM was 28%.

**Q.** And the inhibition at 1 µM ([2]; read-out: % Inhibition Point 2)?
**A.** The inhibition at 1 µM was 29%.

**Q.** And the inhibition at 1 µM ([2]; read-out: % Inhibition mean)?
**A.** The inhibition at 1 µM was 29%.

**Q.** And the inhibition at 1 µM ([3]; read-out: % Inhibition Point 1)?
**A.** The inhibition at 1 µM was 16%.

**Q.** And the inhibition at 1 µM ([3]; read-out: % Inhibition Point 2)?
**A.** The inhibition at 1 µM was 17%.

**Q.** What about the inhibition at 1 µM ([3]; read-out: % Inhibition mean) of the same compound?
**A.** Its inhibition at 1 µM is 16%.

**Q.** And the inhibition at 1 µM ([4]; read-out: % Inhibition Point 1)?
**A.** The inhibition at 1 µM was 8.55%.

**Q.** And the inhibition at 1 µM ([4]; read-out: % Inhibition Point 2)?
**A.** Its inhibition at 1 µM is 8%.

**Q.** What about the inhibition at 1 µM ([4]; read-out: % Inhibition mean) of the same compound?
**A.** Its inhibition at 1 µM is 8%.

**Q.** What about the inhibition at 1 µM ([5]; read-out: % Inhibition Point 1) of the same compound?
**A.** Its inhibition at 1 µM is -2.48%.

**Q.** And the inhibition at 1 µM ([5]; read-out: % Inhibition Point 2)?
**A.** The inhibition at 1 µM was 2.33%.

**Q.** What about the inhibition at 1 µM ([5]; read-out: % Inhibition mean) of the same compound?
**A.** Its inhibition at 1 µM is -0.0739%.

**Q.** And the inhibition at 1 µM ([6]; read-out: % Inhibition Point 1)?
**A.** Its inhibition at 1 µM is 7%.

**Q.** And the inhibition at 1 µM ([6]; read-out: % Inhibition Point 2)?
**A.** The inhibition at 1 µM was 7%.

**Q.** And the inhibition at 1 µM ([6]; read-out: % Inhibition mean)?
**A.** The inhibition at 1 µM was 7%.

**Q.** What about the inhibition at 1 µM ([7]; read-out: % Inhibition Point 1) of the same compound?
**A.** The inhibition at 1 µM was 0.526%.

**Q.** And the inhibition at 1 µM ([7]; read-out: % Inhibition Point 2)?
**A.** The inhibition at 1 µM was 3.33%.

**Q.** What about the inhibition at 1 µM ([7]; read-out: % Inhibition mean) of the same compound?
**A.** The inhibition at 1 µM was 2%.

**Q.** And the inhibition at 1 µM ([8]; read-out: % Inhibition Point 1)?
**A.** Its inhibition at 1 µM is 2%.

**Q.** What about the inhibition at 1 µM ([8]; read-out: % Inhibition Point 2) of the same compound?
**A.** Its inhibition at 1 µM is 0.0719%.

**Q.** And the inhibition at 1 µM ([8]; read-out: % Inhibition mean)?
**A.** The inhibition at 1 µM was 1%.

**Q.** And the inhibition at 1 µM ([9]; read-out: % Inhibition Point 1)?
**A.** The inhibition at 1 µM was 7.5%.

**Q.** What about the inhibition at 1 µM ([9]; read-out: % Inhibition Point 2) of the same compound?
**A.** The inhibition at 1 µM was 6%.

**Q.** And the inhibition at 1 µM ([9]; read-out: % Inhibition mean)?
**A.** The inhibition at 1 µM was 6.66%.

**Q.** And the inhibition at 1 µM ([10]; read-out: % Inhibition Point 1)?
**A.** The inhibition at 1 µM was 12%.

**Q.** And the inhibition at 1 µM ([10]; read-out: % Inhibition Point 2)?
**A.** Its inhibition at 1 µM is 12%.

**Q.** And the inhibition at 1 µM ([10]; read-out: % Inhibition mean)?
**A.** The inhibition at 1 µM was 12%.

**Q.** What about the inhibition at 1 µM ([11]; read-out: % Inhibition Point 1) of the same compound?
**A.** Its inhibition at 1 µM is 9.47%.

**Q.** What about the inhibition at 1 µM ([11]; read-out: % Inhibition Point 2) of the same compound?
**A.** Its inhibition at 1 µM is 10%.

**Q.** And the inhibition at 1 µM ([11]; read-out: % Inhibition mean)?
**A.** Its inhibition at 1 µM is 10%.

**Q.** And the inhibition at 1 µM ([12]; read-out: % Inhibition Point 1)?
**A.** The inhibition at 1 µM was 28%.

**Q.** And the inhibition at 1 µM ([12]; read-out: % Inhibition Point 2)?
**A.** Its inhibition at 1 µM is 31%.

**Q.** And the inhibition at 1 µM ([12]; read-out: % Inhibition mean)?
**A.** The inhibition at 1 µM was 30%.

**Q.** And the inhibition at 1 µM ([13]; read-out: % Inhibition Point 1)?
**A.** Its inhibition at 1 µM is 9%.

**Q.** What about the inhibition at 1 µM ([13]; read-out: % Inhibition Point 2) of the same compound?
**A.** Its inhibition at 1 µM is 9%.

**Q.** What about the inhibition at 1 µM ([13]; read-out: % Inhibition mean) of the same compound?
**A.** The inhibition at 1 µM was 9%.

**Q.** And the inhibition at 1 µM ([14]; read-out: % Inhibition Point 1)?
**A.** Its inhibition at 1 µM is 30%.

**Q.** What about the inhibition at 1 µM ([14]; read-out: % Inhibition Point 2) of the same compound?
**A.** The inhibition at 1 µM was 29%.

**Q.** And the inhibition at 1 µM ([14]; read-out: % Inhibition mean)?
**A.** The inhibition at 1 µM was 30%.

**Q.** And the inhibition at 1 µM ([15]; read-out: % Inhibition Point 1)?
**A.** The inhibition at 1 µM was 1.56%.

**Q.** And the inhibition at 1 µM ([15]; read-out: % Inhibition Point 2)?
**A.** The inhibition at 1 µM was 1.35%.

**Q.** And the inhibition at 1 µM ([15]; read-out: % Inhibition mean)?
**A.** The inhibition at 1 µM was 1.46%.
